Measurements from publication PMC7088078 (Journal of Inorganic and Organometallic Polymers and …, 2008).
Where a name gives a salt, the structure may show the parent alone.

What was measured:
[1] = test system: L929; assay: Cytotoxicity assay; assay type: cell-based, mouse; settings: trypan blue dye exclusion after 7 days, ± one SD
[2] = test system: 143; assay: Cytotoxicity assay; assay type: cell-based, human; settings: trypan blue dye exclusion after 7 days, ± one SD
[3] = test system: Vero; assay: Cytotoxicity assay; assay type: cell-based, African green monkey; settings: trypan blue dye exclusion after 7 days, ± one SD
[4] = test system: BS-C-1; assay: Cytotoxicity assay; assay type: cell-based, African green monkey; settings: trypan blue dye exclusion after 7 days, ± one SD
[5] = test system: Reovirus ST3; assay: Plaque reduction assay; assay type: cell-based, reovirus serotype 3 (ST3) strain Dearing; settings: Reovirus ST3 in L929 cells, ± one SD
[6] = test system: Vaccinia WR; assay type: cell-based, Vaccinia virus, strain WR
[7] = test system: HSV-1; assay: Plaque reduction assay; assay type: cell-based, Herpes simplex virus 1, strain GHSV-UL46; settings: HSV-1 in Vero cells; ± one SD
[8] = test system: VZV; assay type: cell-based, Varicella Zoster virus, strain Ellen; settings: VZV in BS-C-1 cells; ± one SD
[9] = test system: L929; assay: Chemotherapeutic activity; settings: after 7 days, ± one SD
[10] = test system: 143; assay: Chemotherapeutic activity; settings: after 7 days, ± one SD
[11] = test system: Vero; assay: Chemotherapeutic activity; settings: after 7 days, ± one SD
[12] = test system: BS-C-1; assay: Chemotherapeutic activity; settings: after 7 days, ± one SD
[13] = test system: L929, 143, Vero, BS-C-1 cell lines; assay: Cell inhibition as a function of drug concentration; settings: Fig. 1; cell line not specified
[14] = test system: reovirus, vaccinia, HSV-1, VZV; assay type: cell-based
[15] = test system: HSV-1; settings: cited from earlier work
[16] = test system: vaccinia; settings: cited from earlier work
[17] = test system: ssRNA viruses; settings: in words; cited from earlier work

Row | Compound | MCC, minimum cytotoxicity concentration that causes a reduction in cell viability >10% [1] [µg/mL] | MCC, minimum cytotoxicity concentration that causes a reduction in cell viability >10% [2] [µg/mL] | MCC, minimum cytotoxicity concentration that causes a reduction in cell viability >10% [3] [µg/mL] | MCC, minimum cytotoxicity concentration that causes a reduction in cell viability >10% [4] [µg/mL] | MIC, minimum inhibitory concentration required to reduce virus plaque number by 50% [5] [µg/mL] | MIC, minimum inhibitory concentration required to reduce virus plaque number by 50% ([5]; listed as acyclovir) [µg/mL] | MIC, minimum inhibitory concentration required to reduce virus plaque number by 50% [6] [µg/mL] | MIC, minimum inhibitory concentration required to reduce virus plaque number by 50% [7] | MIC, minimum inhibitory concentration required to reduce virus plaque number by 50% [8] [µg/mL] | GI50 (50% reduction in cell growth) [9] [µg/mL] | GI50 (50% reduction in cell growth) [10] [µg/mL] | GI50 (50% reduction in cell growth) [11] [µg/mL] | GI50 (50% reduction in cell growth) [12] [µg/mL] | GI50 [13] | inhibition of the tested viruses [14] | concentration shown to inhibit HSV-1 [15] [µg/mL] | concentration shown to inhibit vaccinia [16] [µg/mL] | antiviral activity against ssRNA viruses [17]
1 | Nc1nc2c(ncn2COCCO)c(=O)[nH]1 [Acyclovir] | 500 ± 42.0 | 425 ± 32.0 | 400 ± 42.0 | 440 ± 39.0 | >250 | > 250 | >200 | about 0.08 μg/mL |  |  |  |  |  |  |  |  |  | 
2 | N.N.[Cl][Pt][Cl] [Cisplatin] |  |  |  |  | >25 |  | >25 | >25 µg/mL | >25 | 75 ± 6.0 | 50 ± 4.0 | 50 ± 4.0 | 50 ± 3.0 | about 50 μg/mL |  |  |  | 
3 | [Cl][Pt-2]([Cl])([Cl])[Cl].[K+].[K+] [Compound K2PtCl4, potassium tetrachloroplatinate(II)] | 100 ± 9.0 | 75 ± 6.0 | 100 ± 9.0 | 75 ± 6.0 | >100 |  | >75 | >100 µg/mL | >75 | 200 ± 20.0 | 175 ± 12.0 | 200 ± 16.0 | 175 ± 20.0 |  | little inhibition |  |  | 
4 | CCN(CC)CCOc1ccc2c(c1)C(=O)c1cc(OCCN(CC)CC)ccc1-2 [Tilorone hydrochloride, 2,7-bis[2-(9-diethylamino)ethoxy]-9H-fluorene-9-one] |  |  |  |  |  |  |  |  |  |  |  |  |  |  |  | 10 | 10 | no antiviral activity
